In patent EP0257993B1, “Nucleic acid fragment encoding herbicide resistant plant acetolactate synthase” (priority 1986, dated 1988):

Tests used:
[1] = tested on: Hra mutant plants; test: Foliar application to Hra mutant plants; assay type: in vivo, Nicotiana tabacum
[2] = tested on: ALS; test: ALS assay of leaf extracts, wild type tobacco; assay type: biochemical, Nicotiana tabacum CV.NK326 or K14; settings: DPX-F6025 at 10ppb, activity without herbicide = 100 percent
Procedure: (§1) Approximately 1-2 weeks late shoots developing on kanamycin-selected explants were excised with a sterile scalpel and planted in A medium containing 100 mg/l kanamycin. Root formation on selective and non-selective media was recorded within 3 weeks. Shoots which rooted in kanamycin were transferred to soil and grown in a growth chamber as described above. After 3 to 5 weeks, but before flowering had occurred, leaf tissue was excised and used for ALS assays as described in Example VI. […] Individual flowers were bagged to permit self-fertilization without cross-pollination. Mature seeds were harvested and progeny tests were conducted to determine inheritance of the herbicide resistance trait. Seeds were surface sterilized as described above, dried and planted on SG medium (1/4 MS salts, 0.75% sucrose, 0.8% Agar) in the presence or absence of herbicide (DPX-F6025, Classic®). […] A segregration ratio of 3 resistant progeny to 1 sensitive indicated the presence of a single-site insertion of the SURB-Hra gene in the trasnformant which was stably inherited. […] Higher ratios of resistant to sensitive progeny indicated multiple insertions at unlinked positions in the genome. The 15/1 ratio indicates the presence of 2 unlinked SURB-Hra genes and 255/1 ratio indicates 4 unlinked SURB-Hra genes in the transformants K14 #40 and K14 #7, respectively.
Keep on ice. • 2. […] Read at OD 530.

[3] = tested on: progeny of tobacco transformants; test: Progeny test of seeds on SG medium with herbicide; assay type: in vivo, Nicotiana tabacum CV.NK326 or K14
Procedure: as §1

[4] = tested on: ALS; test: ALS assay of leaf extracts, wild-type tomato; assay type: biochemical, Lycopersicon esculentum var. Herbst Red Cherry
Procedure: After approximately 2-4 weeks, shoots developing off of kanamycin-selected cotyledons were excised and planted in OMS media containing 500 mg/L cefotaxime and 100 mg/L kanamycin. Tomato shoots which rooted in kanamycin after about 2-3 weeks were transferred to soil in 8" pots and covered with plastic bags. The plants were grown under mixed fluorescent and incandescent lights for a 12 hr, 24°C day; 12 hr, 20°C night cycle, with approximately 80% relative humidity, for one week before removing the plastic bags. The plants were grown for another 2-4 weeks before performing ALS assays. […]
Keep on ice. • 2. […] 16K rpm, 4°C. • 4. […] Incubate on ice for 30 minutes. • 6. […] Decant supernatant. • 7. Resuspend pellet in 1 ml cold column buffer. • 8. […] Let this run through column. • 9. Elute proteins with 2X volume of extract loaded. […] Incubate reaction for 1 hour, 30°C. • 12. […] Spin in microfuge 5 minutes. • 13. […] Read at OD 530.

[5] = tested on: tobacco callus; test: Growth of tobacco mutant callus (C3, S4, Hra) on herbicide; assay type: cell-based, Nicotiana tabacum var. Xanthi
Procedure: (§2) Callus cultures of sensitive tobacco (Nicotiana tabacum var. Xanthi) were exposed to sulfometuron methyl at 2 ppb according to the method described by Chaleff, U.S. 4,443,971. […] Plants were regenerated from Hra callus cultures. […] ALS activity in extracts of leaves of wild type and homozygous Hra mutant tobacco plants was determined.

[6] = tested on: ALS; assay type: biochemical, Nicotiana tabacum; settings: C3 and S4 lines
Procedure: as §2

Compound: CC(C)C1(C)N=C(c2ncccc2C(=O)O)NC1=O.CC(C)N (stereo not drawn)
- cross resistance to foliar application [1]: cross resistant

Compound: 6-(4-isopropyl-4-methyl-5-oxo-2-imidazolin-2-yl)-m-toluic acid and p-toluic acid, methyl esters
- cross resistance to foliar application [1]: cross resistant

Compound: COc1nc(C)nc(NC(=O)NS(=O)(=O)c2ccccc2OCCCl)n1 [2-(2-chloroethoxy)-N-[(4-methoxy-6-methyl-1,3,5-triazin-2-yl)aminocarbonyl]benzenesulfonamide]
- cross resistance to foliar application [1]: cross resistant

Compound: CC(C)C1(C)N=C(c2nc3ccccc3cc2C(=O)O)NC1=O (stereo not drawn) [2-[4,5-dihydro-4-methyl-4-(1-methylethyl)-5-oxo-1H-imidazol-2-yl]-3-quinolinecarboxylic acid]
- cross resistance to foliar application [1]: cross resistant

Compound: COC(=O)c1ccccc1S(=O)(=O)NC(=O)Nc1nc(C)cc(C)n1 [2-[[(4,6-dimethylpyrimidin-2-yl)aminocarbonyl]aminosulfonyl]benzoic acid, methyl ester]
- cross resistance to foliar application [1]: cross resistant

Compound: CCOC(=O)c1ccccc1S(=O)(=O)NC(=O)Nc1nc(Cl)cc(OC)n1 [2-[[(4-chloro-6-methoxypyrimidin-2-yl)aminocarbonyl]aminosulfonyl]benzoic acid, ethyl ester]
- cross resistance to foliar application [1]: cross resistant

Compound: COC(=O)c1c(C)cccc1S(=O)(=O)NC(=O)Nc1nc(C)cc(OC)n1 [2-[[(4-methoxy-6-methylpyrimidin-2-yl)aminocarbonyl]aminosulfonyl]-6-methylbenzoic acid, methyl ester]
- cross resistance to foliar application [1]: cross resistant

Compound: COc1nc(C)nc(NC(=O)NS(=O)(=O)c2ccccc2Cl)n1 [2-chloro-N-[(4-methoxy-6-methyl-1,3,5-triazin-2-yl)aminocarbonyl]benzenesulfonamide]
- cross resistance to foliar application [1]: cross resistant

Compound: Cc1cc(C)n2nc(S(=O)(=O)Nc3c(C)cccc3[N+](=O)[O-])nc2n1 [5,7-dimethyl-N-(2-methyl-6-nitrophenyl)[1,2,4]triazolo[1,5-A]pyrimidin-2-sulfonamide]
- cross resistance to foliar application [1]: cross resistant

Compound: CCC1C=NC(C2=NC(C)(C(C)C)C(=O)N2)=C(C(=O)O)C1 (stereo not drawn) [5-ethyl-4,5-dihydro-2-[4-methyl-4-(1-methylethyl)-5-oxo-1H-imidazol-2-yl]-3-pyridinecarboxylic acid]
- cross resistance to foliar application [1]: cross resistant

Compound: COc1cc(OC)nc(NC(=O)NS(=O)(=O)c2c(Cl)ccc3c2S(=O)(=O)N(C)CC3)n1 [7-chloro-N-[(4,6-dimethoxypyrimidin-2-yl)aminocarbonyl]-3,4-dihydro-2-methyl-2H-1,2-benzothiazine-8-sulfonamide, S,S-dioxide]
- cross resistance to foliar application [1]: cross resistant

Compound: CCOC(=O)c1ccccc1S(=O)(=O)NC(=O)Nc1nc(Cl)cc(OC)n1 [DPX-F6025]
- % Unhibited ALS Activity ([2]; K14 wT): 7%
- % Unhibited ALS Activity ([2]; NK326(wT)): 7%
- Progeny Resistant/Sensitive ([3]; K14 #7, 100ppb DPX-F6025): 990/4
- Progeny Resistant/Sensitive ([3]; K14 #7, 1000bbp DPX-F6025): 109/1
- Progeny Resistant/Sensitive ([3]; K14 #11, 100ppb DPX-F6025): 208/85
- Progeny Resistant/Sensitive ([3]; K14 #11, 1000bbp DPX-F6025): 127/76
- Progeny Resistant/Sensitive ([3]; K14 #27, 100ppb DPX-F6025): 129/45
- Progeny Resistant/Sensitive ([3]; K14 #27, 1000bbp DPX-F6025): 108/42
- Progeny Resistant/Sensitive ([3]; K14 #29, 100ppb DPX-F6025): 192/46
- Progeny Resistant/Sensitive ([3]; K14 #29, 1000bbp DPX-F6025): 163/67
- Progeny Resistant/Sensitive ([3]; K14 #32c, 100ppb DPX-F6025): 140/65
- Progeny Resistant/Sensitive ([3]; K14 #32c, 1000bbp DPX-F6025): 63/86
- Progeny Resistant/Sensitive ([3]; K14 #40, 100ppb DPX-F6025): 218/18
- Progeny Resistant/Sensitive ([3]; K14 #40, 1000bbp DPX-F6025): 212/26
- Progeny Resistant/Sensitive ([3]; K14 #41, 100ppb DPX-F6025): 255/35
- Progeny Resistant/Sensitive ([3]; K14 #41, 1000bbp DPX-F6025): 296/74
- Progeny Resistant/Sensitive ([3]; K14 #42, 100ppb DPX-F6025): 162/74
- Progeny Resistant/Sensitive ([3]; K14 #42, 1000bbp DPX-F6025): 77/72
- Progeny Resistant/Sensitive ([3]; K14 #53, 100ppb DPX-F6025): 130/59
- Progeny Resistant/Sensitive ([3]; K14 #53, 1000bbp DPX-F6025): 149/139
- Progeny Resistant/Sensitive ([3]; K14 #54A, 100ppb DPX-F6025): 137/55
- Progeny Resistant/Sensitive ([3]; K14 #54A, 1000bbp DPX-F6025): 100/72
- Progeny Resistant/Sensitive ([3]; K24 #31, 100ppb DPX-F6025): 106/35
- Progeny Resistant/Sensitive ([3]; K24 #31, 1000bbp DPX-F6025): 99/34
- Progeny Resistant/Sensitive ([3]; NK326 #9c, 100ppb DPX-F6025): 163/49
- Progeny Resistant/Sensitive ([3]; NK326 #9c, 1000bbp DPX-F6025): 99/63
- Progeny Resistant/Sensitive ([3]; NK326 #10, 100ppb DPX-F6025): 93/31
- Progeny Resistant/Sensitive ([3]; NK326 #10, 1000bbp DPX-F6025): 96/24
- Progeny Resistant/Sensitive ([3]; NK326 #10c, 100ppb DPX-F6025): 333/45
- Progeny Resistant/Sensitive ([3]; NK326 #10c, 1000bbp DPX-F6025): 290/76
- Progeny Resistant/Sensitive ([3]; NK326 #9d, 100ppb DPX-F6025): 288/67
- Progeny Resistant/Sensitive ([3]; NK326 #9d, 1000bbp DPX-F6025): 150/58
- Progeny Resistant/Sensitive ([3]; X14 #54, 100ppb DPX-F6025): 99/38
- Progeny Resistant/Sensitive ([3]; X14 #54, 1000bbp DPX-F6025): 92/43
- Progeny Resistant/Sensitive ([3]; nk326 #1, 100ppb DPX-F6025): 98/37
- Progeny Resistant/Sensitive ([3]; nk326 #1, 1000bbp DPX-F6025): 90/35
- Percent Uninhibited ALS Activity ([4]; 10ppb): 15%
- Percent Uninhibited ALS Activity ([4]; 100ppb): 5%
- Percent Uninhibited ALS Activity ([4]; 1000ppb): 4%

Compound: Cc1cc(C)n2nc(S(=O)(=O)Nc3c(Cl)cccc3Cl)nc2n1 [N-(2,6-dichlorphenyl)-5,7-dimethyl[1,2,4]triazolo [1,5-A]pyrimidin-2-sulfonamide]
- cross resistance to foliar application [1]: cross resistant

Compound: Cc1cc(C)n2nc(S(=O)(=O)Nc3c(C)cccc3Cl)nc2n1 [N-(2-chloro-6-methylphenyl)-5,7-dimethyl[1,2,4]triazolo[1,5-A]pyrimidin-2-sulfonamide]
- cross resistance to foliar application [1]: cross resistant

Compound: COc1cc(OC)nc(NC(=O)NS(=O)(=O)c2cccc3c2S(=O)(=O)C(C)C3)n1 (stereo not drawn) [N-[(4,6-dimethoxypyrimidin-2-yl)aminocarbonyl]-2,3-dihydro-2-methylbenzo[β]thiophene-7-sulfonamide, 1,1-dioxide]
- cross resistance to foliar application [1]: cross resistant

Compound: COC(=O)c1ccccc1S(=O)(=O)NC(=O)Nc1nc(C)cc(C)n1 [sulfometuron methyl]
- selective herbicide resistance conferred by the mutation ([5]; C3 cell line (SURA-C3, proline-to-glutamine at position 197)): conferred resistance
- tolerated concentrations compared with that required to completely inhibit the growth of wild type callus ([5]; Hra cell line): one thousand times greater
- selective concentration which completely inhibits the growth ([5]; S4 cell line): 200 ppb
- resistance of ALS enzyme activity compared with ALS from wild type [6]: one-hundred fold
